Here are results for two compounds from US20230085307A1, “PYRIDAZINONE COMPOUND AND HERBICIDE” (NISSAN CHEMICAL CORPORATION, priority 2019, published 2023).

The structures appear in SMILES notation.

The first assay has as its system blackgrass. Nature of the assay: Test Example 5: herbicidal effect by foliage application, plastic box (Table 20, symbol J). Type of assay: in vivo, blackgrass (Alopecurus myosuroides). Particulars: foliage application, 320 g/ha, three weeks after application. The method in brief:
(§1)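 Sow seeds spot-wise in sterilized diluvial soil; cover with ~1.5 cm soil. Grow 14 days in greenhouse, 25° C. to 30° C. Spray foliage with emulsion diluted to predetermined amount. Rate effect after 3 weeks.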
`CCOc1ccccc1-c1sc2cc(Cl)ccc2c1-c1c(O)c(C)nn(C)c1=O` [3-039]: the “J: blackgrass, herbicidal effect grade” value was 4 (Herbicidal rate of 70% or more and less than 90%).
On the same count and under the same terms, the figure for `CCCC(=O)Oc1c(C)nn(C)c(=O)c1-c1c(-c2ccccc2OCC)sc2cc(Cl)ccc12` [3-040] is 5 (Herbicidal rate of 90% or more (almost completely withered)).

A further assay has as its system barnyard grass. Nature of the assay: Test Example 4: herbicidal effect by soil treatment (Table 19, symbol H). The format is in vivo, barnyard grass (Echinochloa crus-galli). Particulars: amount of applied herbicide 320 g/ha. An outline of the steps:
(§2)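 Soil-surface application: an emulsion agent diluted with water to the predetermined dose is sprayed uniformly over seeds lying under roughly 1.5 cm of sterilized diluvial soil. Boxes stay in a greenhouse at 25° C. to 30° C. Three weeks later, each species is graded on previously defined criteria.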
Turning to `CCOc1ccccc1-c1sc2cc(Cl)ccc2c1-c1c(O)c(C)nn(C)c1=O` [3-039], the “H: barnyard grass, herbicidal effect grade” value (shortened to “H: barnyard grass”) is 4 (Herbicidal rate of 70% or more and less than 90%).
In the case of `CCCC(=O)Oc1c(C)nn(C)c(=O)c1-c1c(-c2ccccc2OCC)sc2cc(Cl)ccc12` [3-040], the “H: barnyard grass” value is listed as 0 (Herbicidal rate of 5% or less (almost no effect)).

A further assay deals with Italian ryegrass. Nature of the assay: Test Example 5: herbicidal effect by foliage application, plastic box (Table 20, symbol K). The format is in vivo, Italian ryegrass (Lolium multiflorum). The settings on record: foliage application, 320 g/ha, three weeks after application. An outline of the steps:
as §1
For the compound `CCOc1ccccc1-c1sc2cc(Cl)ccc2c1-c1c(O)c(C)nn(C)c1=O` [3-039], the “K: Italian ryegrass, herbicidal effect grade” value was 4 (Herbicidal rate of 70% or more and less than 90%).
With `CCCC(=O)Oc1c(C)nn(C)c(=O)c1-c1c(-c2ccccc2OCC)sc2cc(Cl)ccc12` [3-040], the “K: Italian ryegrass, herbicidal effect grade” value is given as 0 (Herbicidal rate of 5% or less (almost no effect)).

For a further assay, the system named is southern crabgrass. As to the kind of experiment: Test Example 4: herbicidal effect by soil treatment (Table 19, symbol F). The format is in vivo, southern crabgrass (Digitaria ciliaris). Particulars: amount of applied herbicide 320 g/ha. An outline of the steps: as §2
Turning to `CCOc1ccccc1-c1sc2cc(Cl)ccc2c1-c1c(O)c(C)nn(C)c1=O` [3-039], the “F: southern crabgrass, herbicidal effect grade” value is reported as 5 (Herbicidal rate of 90% or more (almost completely withered)).
Regarding `CCCC(=O)Oc1c(C)nn(C)c(=O)c1-c1c(-c2ccccc2OCC)sc2cc(Cl)ccc12` [3-040], the “F: southern crabgrass, herbicidal effect grade” value is 1 (Herbicidal rate of 5% or more and less than 20%).

A further assay relates to chickweed. Nature of the assay: Test Example 5: herbicidal effect by foliage application, plastic box (Table 20, symbol P). The format is in vivo, common chickweed (Stellaria media). Particulars: foliage application, 320 g/ha, three weeks after application. The method in brief:
as §1
For `CCOc1ccccc1-c1sc2cc(Cl)ccc2c1-c1c(O)c(C)nn(C)c1=O` [3-039], the “P: chickweed, herbicidal effect grade” value was 5 (Herbicidal rate of 90% or more (almost completely withered)).
On the same count and under the same terms, the figure for `CCCC(=O)Oc1c(C)nn(C)c(=O)c1-c1c(-c2ccccc2OCC)sc2cc(Cl)ccc12` [3-040] is 5 (Herbicidal rate of 90% or more (almost completely withered)).

Another assay relates to velvetleaf. As to the kind of experiment: Test Example 5: herbicidal effect by foliage application, plastic box (Table 20, symbol M). Particulars: foliage application, 320 g/ha, three weeks after application. Type of assay: in vivo, velvetleaf (Abutilon theophrasti). An outline of the steps:
as §1
For the compound `CCOc1ccccc1-c1sc2cc(Cl)ccc2c1-c1c(O)c(C)nn(C)c1=O` [3-039], the “M: velvetleaf, herbicidal effect grade” value is given as 5 (Herbicidal rate of 90% or more (almost completely withered)).
Still for that read-out and setting: the figure for `CCCC(=O)Oc1c(C)nn(C)c(=O)c1-c1c(-c2ccccc2OCC)sc2cc(Cl)ccc12` [3-040] is 4 (Herbicidal rate of 70% or more and less than 90%).

The next assay has as its system oval-leafed pondweed. Nature of the assay: Test Example 2: herbicidal activity, application during weed generation under submerged conditions (Table 17, symbol C). Type of assay: in vivo, oval-leafed pondweed (Monochoria vaginalis). The settings on record: AAH 320 g/ha; application during weed generation, submerged conditions. The method in brief: (§3)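 3-wk visual-criteria score after one water-surface dose. Emulsion formulation, water-diluted to set rate; applied at 1–2 leaf stage; alluvial soil, 4 cm standing water; seeds co-sown; greenhouse 25–30° C.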
With `CCOc1ccccc1-c1sc2cc(Cl)ccc2c1-c1c(O)c(C)nn(C)c1=O` [3-039], the “herbicidal effect rating, C: oval-leafed pondweed” value is listed as 0 (Herbicidal rate of 5% or less (almost no effect)).
`CCCC(=O)Oc1c(C)nn(C)c(=O)c1-c1c(-c2ccccc2OCC)sc2cc(Cl)ccc12` [3-040]: the “herbicidal effect rating, C: oval-leafed pondweed” value was 3 (Herbicidal rate of 40% or more and less than 70%).

The next assay has as its system lambsquarters. As to the kind of experiment: Test Example 4: herbicidal effect by soil treatment (Table 19, symbol O). The format is in vivo, lambsquarters (Chenopodium album). Particulars: amount of applied herbicide 320 g/ha. The method in brief:
as §2
Turning to `CCOc1ccccc1-c1sc2cc(Cl)ccc2c1-c1c(O)c(C)nn(C)c1=O` [3-039], the “O: lambsquarters, herbicidal effect grade” value was 3 (Herbicidal rate of 40% or more and less than 70%).
`CCCC(=O)Oc1c(C)nn(C)c(=O)c1-c1c(-c2ccccc2OCC)sc2cc(Cl)ccc12` [3-040]: the “O: lambsquarters, herbicidal effect grade” value was 3 (Herbicidal rate of 40% or more and less than 70%).

Another assay deals with green foxtail. As to the kind of experiment: Test Example 5: herbicidal effect by foliage application, plastic box (Table 20, symbol G). The settings on record: foliage application, 320 g/ha, three weeks after application. The format is in vivo, green foxtail (Setaria viridis). The method in brief:
as §1
Consider `CCOc1ccccc1-c1sc2cc(Cl)ccc2c1-c1c(O)c(C)nn(C)c1=O` [3-039], for which the “G: green foxtail, herbicidal effect grade” value is on record as 5 (Herbicidal rate of 90% or more (almost completely withered)).
On the same count and under the same terms, in the case of `CCCC(=O)Oc1c(C)nn(C)c(=O)c1-c1c(-c2ccccc2OCC)sc2cc(Cl)ccc12` [3-040] it was 4 (Herbicidal rate of 70% or more and less than 90%).

Another assay has as its system late watergrass. As to the kind of experiment: Test Example 2: herbicidal activity, application during weed generation under submerged conditions (Table 17, symbol A). Type of assay: in vivo, late watergrass (Echinochloa oryzicola). The settings on record: AAH 320 g/ha; application during weed generation, submerged conditions. The method in brief: as §3
`CCOc1ccccc1-c1sc2cc(Cl)ccc2c1-c1c(O)c(C)nn(C)c1=O` [3-039]: the “herbicidal effect rating, A: late watergrass” value was 2 (Herbicidal rate of 20% or more and less than 40%).
Take `CCCC(=O)Oc1c(C)nn(C)c(=O)c1-c1c(-c2ccccc2OCC)sc2cc(Cl)ccc12` [3-040]: the “herbicidal effect rating, A: late watergrass” value is 2 (Herbicidal rate of 20% or more and less than 40%).

Another assay concerns blackgrass. As to the kind of experiment: Test Example 4: herbicidal effect by soil treatment (Table 19, symbol J). Type of assay: in vivo, blackgrass (Alopecurus myosuroides). Particulars: amount of applied herbicide 320 g/ha. The method in brief: as §2
For the compound `CCOc1ccccc1-c1sc2cc(Cl)ccc2c1-c1c(O)c(C)nn(C)c1=O` [3-039], the “J: blackgrass, herbicidal effect grade” value is on record as 0 (Herbicidal rate of 5% or less (almost no effect)).
In the case of `CCCC(=O)Oc1c(C)nn(C)c(=O)c1-c1c(-c2ccccc2OCC)sc2cc(Cl)ccc12` [3-040], the “J: blackgrass, herbicidal effect grade” value is 0 (Herbicidal rate of 5% or less (almost no effect)).

In the next assay the test system is velvetleaf. Nature of the assay: Test Example 4: herbicidal effect by soil treatment (Table 19, symbol M). The format is in vivo, velvetleaf (Abutilon theophrasti). Particulars: amount of applied herbicide 320 g/ha. The method in brief:
as §2
Turning to `CCOc1ccccc1-c1sc2cc(Cl)ccc2c1-c1c(O)c(C)nn(C)c1=O` [3-039], the “M: velvetleaf, herbicidal effect grade” value is 3 (Herbicidal rate of 40% or more and less than 70%).
Same read-out and setting: the figure for `CCCC(=O)Oc1c(C)nn(C)c(=O)c1-c1c(-c2ccccc2OCC)sc2cc(Cl)ccc12` [3-040] is 3 (Herbicidal rate of 40% or more and less than 70%).

The next assay deals with persian speedwell. As to the kind of experiment: Test Example 4: herbicidal effect by soil treatment (Table 19, symbol R). Type of assay: in vivo, Persian speedwell (Veronica persica). The settings on record: amount of applied herbicide 320 g/ha. An outline of the steps: as §2
With `CCOc1ccccc1-c1sc2cc(Cl)ccc2c1-c1c(O)c(C)nn(C)c1=O` [3-039], the “R: persian speedwell, herbicidal effect grade” value is recorded as 5 (Herbicidal rate of 90% or more (almost completely withered)).
The same measure, in the same setting: the figure for `CCCC(=O)Oc1c(C)nn(C)c(=O)c1-c1c(-c2ccccc2OCC)sc2cc(Cl)ccc12` [3-040] is 4 (Herbicidal rate of 70% or more and less than 90%).

The next assay deals with barnyard grass. As to the kind of experiment: Test Example 3: herbicidal effect by foliage application, Wagner pot (Table 18, symbol H). Type of assay: in vivo, barnyard grass (Echinochloa crus-galli). The settings on record: 320 g/ha. The method in brief: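 Plants were sown in alluvial soil held under 0.1–0.5 cm standing water and grown 14 days in a greenhouse at 25–30 °C. An emulsifiable formulation, water-diluted to the set dose, was then sprayed onto the foliage, and effects were scored three weeks later using previously defined criteria.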
With `CCOc1ccccc1-c1sc2cc(Cl)ccc2c1-c1c(O)c(C)nn(C)c1=O` [3-039], the “herbicidal effect on barnyard grass (H)” value is 4 (Herbicidal rate of 70% or more and less than 90%).
Consider `CCCC(=O)Oc1c(C)nn(C)c(=O)c1-c1c(-c2ccccc2OCC)sc2cc(Cl)ccc12` [3-040], for which the “herbicidal effect on barnyard grass (H)” value is reported as 5 (Herbicidal rate of 90% or more (almost completely withered)).

The subject of another assay is late watergrass. As to the kind of experiment: Test Example 1: herbicidal activity, application before weed generation under submerged conditions (Table 16, symbol A). Type of assay: in vivo, late watergrass (Echinochloa oryzicola). Particulars: amount of applied herbicide 320 g/ha. The method in brief: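 Emulsion formulation, water-diluted to set dose, was put onto the flooded surface (4 cm depth, alluvial soil) the same day weeds were sown and 2.5-leaf rice transplanted. After 3 weeks at 25-30 °C under glass, each species was rated 0 (≤5% kill) to 5 (≥90% kill).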
`CCOc1ccccc1-c1sc2cc(Cl)ccc2c1-c1c(O)c(C)nn(C)c1=O` [3-039]: the “Herbicidal effect, A: late watergrass” value is 2 (Herbicidal rate of 20% or more and less than 40%).
Consider `CCCC(=O)Oc1c(C)nn(C)c(=O)c1-c1c(-c2ccccc2OCC)sc2cc(Cl)ccc12` [3-040], for which the “Herbicidal effect, A: late watergrass” value is 4 (Herbicidal rate of 70% or more and less than 90%).

The next assay concerns barnyard grass. Nature of the assay: Test Example 5: herbicidal effect by foliage application, plastic box (Table 20, symbol H). Type of assay: in vivo, barnyard grass (Echinochloa crus-galli). The settings on record: foliage application, 320 g/ha, three weeks after application. An outline of the steps: as §1
Regarding `CCOc1ccccc1-c1sc2cc(Cl)ccc2c1-c1c(O)c(C)nn(C)c1=O` [3-039], the “H: barnyard grass” value is recorded as 5 (Herbicidal rate of 90% or more (almost completely withered)).
On to `CCCC(=O)Oc1c(C)nn(C)c(=O)c1-c1c(-c2ccccc2OCC)sc2cc(Cl)ccc12` [3-040], for which the “H: barnyard grass” value is recorded as 5 (Herbicidal rate of 90% or more (almost completely withered)).
